Test system: MMP-1
Assay: Test 2: Analysis of inhibition of MMP-1 expression (MMP-1 ELISA, UVB-irradiated HS68 cells)
Assay type: cell-based, human
Conditions: UVB 30 mJ/cm2, compositions 1% mass concentration (RA 5 μM), 48 h, unirradiated control = 100, UV control = 194
Protocol: Test 2: Analysis of Inhibition of MMP-1 Expression
Human fibrocytes (HS68 cells, purchased from ATCC (Rockville, Md., USA)) were placed in a well plate at a density of 7.5×10^4 cells/well, and incubated in DMEM containing 10% FBS for 24 h, and then washed with PBS (phosphate buffer), followed by the addition of 0.5 ml of PBS therein, the resultant incubated cells were irradiated with ultraviolet rays (UVB30 mJ/cm2) to induce the expression of MMP-1. After the replacement with serum-free DMEM, the resultant product was treated with the compositions (having a mass concentration of 1%) of the examples and the contrast examples. The amount of supernatant obtained after 48 h incubation was determined using an MMP-1 ELISA kit. The human dermal fibroblasts HS68 were treated with ultraviolet rays to increase the expression of MMP-1, and then the resultant HS68 cells were treated with each sample to study whether the expression of MMP-1 was decreased. In the above, retinoic acid (RA, 5 μM, which is known to inhibit the expression of MMP-1) was used as a positive control group.

With `CC1=C(/C=C/C(C)=C/C=C/C(C)=C/C(=O)O)C(C)(C)CCC1` [RA, retinoic acid] the “Effect on inhibition of MMP-1 expression: proportions relative to the control group (%)” value was 118%.

— US20200297617A1, “COMPOSITION FOR SKIN EXTERNAL USE FOR REDUCING WRINKLE AND COSMETIC PRODUCT” (Guangdong Bawei Biotechnology Co., Ltd., priority 2019, published 2020)
